Assay results taken from US20200392107A1, “CYCLIC AMINE DERIVATIVE AND MEDICAL USE THEREOF” (Toray Industries, Inc., priority 2018, published 2020).

Tests used:
[1] = molecular target: T1, RORγ-LBD (GST-fused ligand-binding domain of RORγ) / coactivator TRAP220/DRIP-2 (Homo sapiens, UniProt P51449); assay: Inhibitory effect on RORγ-coactivator binding (LanthaScreen TR-FRET RORγ Coactivator Assay); type: biochemical; settings: at 33 μmol/L of the test compound; read-out: RORγ-coactivator binding inhibition rate (%)
T1 construct: purchased Invitrogen
T1 sequence (P51449 269-508 limits assumed): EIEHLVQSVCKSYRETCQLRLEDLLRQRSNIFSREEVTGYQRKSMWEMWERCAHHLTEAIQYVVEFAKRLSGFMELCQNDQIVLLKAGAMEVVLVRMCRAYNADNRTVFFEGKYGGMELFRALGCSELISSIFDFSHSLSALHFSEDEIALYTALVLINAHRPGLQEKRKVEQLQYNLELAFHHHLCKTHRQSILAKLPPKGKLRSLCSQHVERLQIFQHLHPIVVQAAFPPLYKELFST
Procedure: The inhibitory effect of the cyclic amine derivative (I) or a pharmacologically acceptable salt thereof on the binding between a ligand-binding domain of RORγ (hereinafter referred to as RORγ-LBD) and a coactivator was evaluated using Invitrogen's LanthaScreen™ TR-FRET Retinoid-Related Orphan Receptor (ROR) gamma Coactivator Assay kit utilizing time-resolved fluorescence energy transfer (TR-FRET).
A test compound was dissolved in DMSO and diluted with TR-FRET Coregulator Buffer D (Invitrogen) containing 5 mmol/L of DTT to have a final DMSO concentration of 1% before use. To each well of a 384-well black plate (Corning Inc.), 4 nmol/L of GST-fused RORγ-LBD (Invitrogen) diluted with the buffer mentioned above and the test compound were added. A well without addition of the test compound and without addition of GST-fused RORγ-LBD (background) and a well without addition of the test compound and with addition of GST-fused RORγ-LBD (control) were prepared. Next, 150 nmol/L of fluorescein-labeled TRAP220/DRIP-2 (Invitrogen) diluted with the buffer mentioned above and 32 nmol/L of terbium-labeled anti-GST antibody (Invitrogen) were added to each well. After incubating the plate at room temperature for 16 to 24 hours, the fluorescence at 495 nm and 520 nm when excited at 320 nm was measured for each well and the ratio (fluorescence value at 520 nm/fluorescence value at 495 nm) was calculated.
The fold change with addition of the test compound (ratio with addition of the test compound/ratio of the background), the fold change of the control (ratio of the control/ratio of the background), and the fold change of the background (ratio of the background/ratio of the background) were calculated, and then the inhibition rate of binding between RORγ-LBD and a coactivator (hereinafter referred to as RORγ-coactivator binding inhibition rate) (%) was calculated from Formula (1):
RORγ-coactivator binding inhibition rate (%)=(1−((Fold change with addition of the test compound)−(Fold change of the background))/((Fold change of the control)−(Fold change of the background)))×100 (1).

[2] = tested on: mouse alopecia areata model; assay: Mouse alopecia areata model; type: in vivo; settings: 10 mg/kg orally once daily for 42 days, Day 49 to Day 90; C3H/HeJ mice
Procedure: The effect of the cyclic amine derivative (I) or a pharmacologically acceptable salt thereof in a mouse alopecia areata model was evaluated using increase in the hair loss score as an index of worsening of symptoms. The mouse alopecia areata model was prepared by a partially modified method by Wang et al. (Journal of Investigative Dermatology, 2015, vol. 135, p. 2530-2532).
Female C3H/HeJ mice (CLEA Japan, Inc.) with spontaneous hair loss in 70% or more of the body surface were used as donor mice. The donor mice were euthanized by cervical dislocation, and then the groin, axilla, and auricular lymph nodes were aseptically removed. […]
On Day 49, photographs of the back and the abdomen of the mice were taken under isoflurane anesthesia. The status of hair loss was evaluated by a partially modified method by Alli et al. (Journal of Immunology, 2012, vol. 188, p. 477-486). In other words, the ratio of the area of hair loss site to the body surface area was scored in accordance with the criteria mentioned in Table 4, and regarded as the hair loss score. Specifically, the hair loss score was determined based on the numerical value of the ratio calculated from Formula (4): […]
Grouping was performed using the mouse hair loss score calculated on Day 49 as an index (the hair loss score on Day 49 (mean±standard error): 3.6±0.66). […]

SMILES | inhibition at 33 µM [1] [%] | increase in the hair loss score (Day 91) [2]
CC(=O)N1CCCC[C@@H]1C(=O)Nc1cc(Cl)c2c(c1)CCCN2Cc1ccc(C(F)(F)F)cc1 [Example 1, (R)-1-acetyl-N-(8-chloro-1-(4-(trifluoromethyl)benzyl)-1,2,3,4-tetrahydroquinolin-6-yl)piperidine-2-carboxamide] | 96.9 | 
CC(=O)N1CCCC[C@@H]1C(=O)Nc1cc(Cl)c2c(c1)CCN2Cc1ccc(C(F)(F)F)cc1 [Example 4, (R)-1-acetyl-N-(7-chloro-1-(4-(trifluoromethyl)benzyl)indolin-5-yl)piperidine-2-carboxamide] | 96.7 | suppressed
CC(=O)N1CCCC[C@@H]1C(=O)Nc1cc(Cl)c2c(c1)CCN2C[C@H]1CC[C@H](C(F)(F)F)CC1 [Example 9, (R)-1-acetyl-N-(7-chloro-1-((trans-4-(trifluoromethyl)cyclo-hexyl)methyl)indolin-5-yl)piperidine-2-carboxamide] | 96.8 | 
